Measured values taken from ChEMBL document CHEMBL4330132, “5-Keto-3-cyano-2,4-diaminothiophenes as selective maternal embryonic leucine zipper kinase inhibitors” (Bioorg Med Chem Lett, 2019).

Columns and labels:
[1] = molecular target: Death-associated protein kinase 3 (Homo sapiens) (UniProt O43293); assay: Binding affinity to wild-type human partial length DAPK3 (M1 to A277 residues) expressed in bacterial expression system assessed as residual binding level at 1 uM by Kinomescan method relative to control
[2] = molecular target: Serine/threonine-protein kinase 35 (Homo sapiens) (UniProt Q8TDR2); assay: Binding affinity to wild-type human partial length STK35 (G182 to A534 residues) expressed in bacterial expression system assessed as residual binding level at 1 uM by Kinomescan method relative to control
[3] = tested on: Tyrosine-protein kinase ABL1 (Homo sapiens), P00519 [T315I]; assay: Binding affinity to human phosphorylated ABL1 T315I mutant (S229 to K512 residues) expressed in mammalian expression system assessed as residual binding level at 1 uM by Kinomescan method relative to control
[4] = molecular target: Muscle, skeletal receptor tyrosine-protein kinase (Homo sapiens) (UniProt O15146); assay: Binding affinity to wild-type human partial length MUSK (M553 to V869 residues) expressed in bacterial expression system assessed as residual binding level at 1 uM by Kinomescan method relative to control
[5] = molecular target: MAP kinase-activated protein kinase 5 (Homo sapiens) (UniProt Q8IW41); assay: Binding affinity to wild-type human partial length MAPKAPK5 (M1 to D322 residues) expressed in mammalian expression system assessed as residual binding level at 1 uM by Kinomescan method relative to control
Chain of MAP kinase-activated protein kinase 5 (Homo sapiens) (Q8IW41 whole entry, the tested form may be a part): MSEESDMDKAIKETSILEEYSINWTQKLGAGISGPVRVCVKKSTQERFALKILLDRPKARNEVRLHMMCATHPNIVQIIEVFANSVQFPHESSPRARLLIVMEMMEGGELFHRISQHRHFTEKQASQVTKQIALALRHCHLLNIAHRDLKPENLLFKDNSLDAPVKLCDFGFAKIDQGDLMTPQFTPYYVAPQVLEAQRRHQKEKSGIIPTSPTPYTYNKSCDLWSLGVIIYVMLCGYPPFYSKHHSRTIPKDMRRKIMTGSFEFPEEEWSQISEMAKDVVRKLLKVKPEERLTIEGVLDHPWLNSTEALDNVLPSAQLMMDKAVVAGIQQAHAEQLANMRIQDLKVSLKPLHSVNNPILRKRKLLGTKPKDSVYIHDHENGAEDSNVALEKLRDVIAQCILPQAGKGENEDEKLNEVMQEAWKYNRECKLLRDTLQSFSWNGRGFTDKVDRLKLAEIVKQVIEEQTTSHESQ

[6] = molecular target: Protein kinase C epsilon type (Homo sapiens) (UniProt Q02156); assay: Binding affinity to wild-type human partial length PRKCE (A378 to P737 residues) expressed in mammalian expression system assessed as residual binding level at 1 uM by Kinomescan method relative to control
Chain of Protein kinase C epsilon type (Homo sapiens) (Q02156 whole entry, the tested form may be a part): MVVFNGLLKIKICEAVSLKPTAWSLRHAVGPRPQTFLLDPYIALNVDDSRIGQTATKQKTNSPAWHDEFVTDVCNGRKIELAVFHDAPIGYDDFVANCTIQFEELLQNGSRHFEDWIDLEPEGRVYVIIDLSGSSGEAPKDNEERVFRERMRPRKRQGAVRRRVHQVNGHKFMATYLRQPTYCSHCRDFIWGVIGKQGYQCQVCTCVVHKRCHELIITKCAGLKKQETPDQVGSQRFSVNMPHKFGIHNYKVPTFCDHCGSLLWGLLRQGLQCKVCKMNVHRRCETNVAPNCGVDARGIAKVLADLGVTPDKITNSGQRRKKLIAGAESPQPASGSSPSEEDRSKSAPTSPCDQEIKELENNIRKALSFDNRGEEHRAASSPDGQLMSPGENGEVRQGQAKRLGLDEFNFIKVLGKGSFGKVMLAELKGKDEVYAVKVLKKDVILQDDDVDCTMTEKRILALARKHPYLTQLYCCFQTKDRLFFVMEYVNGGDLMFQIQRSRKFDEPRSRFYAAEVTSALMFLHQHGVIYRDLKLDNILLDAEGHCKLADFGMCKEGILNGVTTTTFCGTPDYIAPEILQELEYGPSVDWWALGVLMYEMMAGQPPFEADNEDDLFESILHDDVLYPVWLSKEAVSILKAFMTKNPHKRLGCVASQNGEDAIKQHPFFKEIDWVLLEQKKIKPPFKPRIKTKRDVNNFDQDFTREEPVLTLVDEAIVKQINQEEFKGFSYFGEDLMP

[7] = molecular target: Platelet-derived growth factor receptor alpha (Homo sapiens) (UniProt P16234); assay: Binding affinity to wild-type human partial length PDGFRA (V575 to D1002 residues) expressed in mammalian expression system assessed as residual binding level at 1 uM by Kinomescan method relative to control
[8] = molecular target: Tyrosine-protein kinase ABL1 (Homo sapiens) (UniProt P00519); assay: Binding affinity to wild-type human non-phosphorylated ABL1 (S229 to K512 residues) expressed in mammalian expression system assessed as residual binding level at 1 uM by Kinomescan method relative to control
[9] = molecular target: Calcium/calmodulin-dependent protein kinase type 1D (Homo sapiens) (UniProt Q8IU85); assay: Binding affinity to wild-type human partial length CAMK1D (M1 to K299 residues) expressed in bacterial expression system assessed as residual binding level at 1 uM by Kinomescan method relative to control
Chain of Calcium/calmodulin-dependent protein kinase type 1D (Homo sapiens) (Q8IU85 whole entry, looked up, the tested form may be a part): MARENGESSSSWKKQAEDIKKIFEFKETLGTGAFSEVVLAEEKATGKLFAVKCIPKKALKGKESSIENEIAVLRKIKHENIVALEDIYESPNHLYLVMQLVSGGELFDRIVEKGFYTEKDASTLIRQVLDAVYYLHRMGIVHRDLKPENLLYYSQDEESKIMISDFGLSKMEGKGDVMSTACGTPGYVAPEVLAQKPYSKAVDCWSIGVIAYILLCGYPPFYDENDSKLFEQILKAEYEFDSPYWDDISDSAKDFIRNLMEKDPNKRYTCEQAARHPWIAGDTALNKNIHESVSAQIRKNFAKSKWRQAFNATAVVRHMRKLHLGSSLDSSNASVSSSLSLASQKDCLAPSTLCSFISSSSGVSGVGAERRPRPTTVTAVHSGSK

[10] = molecular target: Aurora kinase C (Homo sapiens) (UniProt Q9UQB9); assay: Binding affinity to wild-type human full length AURKC (M1 to S275 residues) expressed in bacterial expression system assessed as residual binding level at 1 uM by Kinomescan method relative to control
Chain of Aurora kinase C (Homo sapiens) (Q9UQB9 whole entry, the tested form may be a part): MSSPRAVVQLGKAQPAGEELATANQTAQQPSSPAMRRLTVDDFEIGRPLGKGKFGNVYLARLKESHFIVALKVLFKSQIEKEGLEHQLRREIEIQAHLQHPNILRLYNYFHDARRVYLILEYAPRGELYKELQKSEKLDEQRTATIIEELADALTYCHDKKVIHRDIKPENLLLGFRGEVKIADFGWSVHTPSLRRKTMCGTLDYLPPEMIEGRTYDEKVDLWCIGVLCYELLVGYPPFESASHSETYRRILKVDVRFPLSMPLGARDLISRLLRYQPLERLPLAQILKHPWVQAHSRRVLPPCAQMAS

[11] = molecular target: Cyclin-dependent kinase-like 5 (Homo sapiens) (UniProt O76039); assay: Binding affinity to wild-type human partial length CDKL5 (M1 to S337 residues) expressed in mammalian expression system assessed as residual binding level at 1 uM by Kinomescan method relative to control
[12] = tested on: Proto-oncogene tyrosine-protein kinase receptor Ret (Homo sapiens), P07949 [V804L]; assay: Binding affinity to human partial length RET V804L mutant (E713 to D1014 residues) expressed in bacterial expression system assessed as residual binding level at 1 uM by Kinomescan method relative to control
Chain of Proto-oncogene tyrosine-protein kinase receptor Ret (Homo sapiens), P07949 [V804L] (P07949 whole entry V804L, the tested form may be a part): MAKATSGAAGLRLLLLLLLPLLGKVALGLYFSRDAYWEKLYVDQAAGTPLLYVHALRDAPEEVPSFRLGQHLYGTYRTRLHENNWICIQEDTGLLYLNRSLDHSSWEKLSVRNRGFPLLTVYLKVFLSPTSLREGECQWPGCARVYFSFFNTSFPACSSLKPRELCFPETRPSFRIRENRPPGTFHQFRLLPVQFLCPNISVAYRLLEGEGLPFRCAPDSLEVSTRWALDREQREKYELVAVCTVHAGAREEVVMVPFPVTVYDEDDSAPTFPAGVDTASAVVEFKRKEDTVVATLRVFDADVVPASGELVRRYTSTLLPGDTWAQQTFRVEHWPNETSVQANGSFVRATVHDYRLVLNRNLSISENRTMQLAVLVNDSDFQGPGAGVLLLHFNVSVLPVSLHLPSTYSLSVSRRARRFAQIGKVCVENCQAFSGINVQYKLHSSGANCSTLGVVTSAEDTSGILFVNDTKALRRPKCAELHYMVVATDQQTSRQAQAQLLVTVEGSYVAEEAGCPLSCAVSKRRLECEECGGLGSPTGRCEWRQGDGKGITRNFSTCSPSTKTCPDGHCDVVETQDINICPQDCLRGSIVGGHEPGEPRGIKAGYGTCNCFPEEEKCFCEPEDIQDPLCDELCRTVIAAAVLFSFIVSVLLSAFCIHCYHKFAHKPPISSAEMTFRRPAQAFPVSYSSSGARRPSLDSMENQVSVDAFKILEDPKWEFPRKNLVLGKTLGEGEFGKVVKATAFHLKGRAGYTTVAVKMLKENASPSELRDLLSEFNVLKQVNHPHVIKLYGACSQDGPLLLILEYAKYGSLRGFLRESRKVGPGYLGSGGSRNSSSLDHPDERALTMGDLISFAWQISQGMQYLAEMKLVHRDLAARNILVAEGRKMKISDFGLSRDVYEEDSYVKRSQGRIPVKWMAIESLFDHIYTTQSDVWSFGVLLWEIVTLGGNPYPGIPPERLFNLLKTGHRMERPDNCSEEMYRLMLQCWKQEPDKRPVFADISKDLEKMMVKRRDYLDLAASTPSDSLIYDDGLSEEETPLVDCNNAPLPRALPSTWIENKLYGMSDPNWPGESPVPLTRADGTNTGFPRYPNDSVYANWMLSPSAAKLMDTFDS

[13] = molecular target: Calcium/calmodulin-dependent protein kinase type II subunit beta (Homo sapiens) (UniProt Q13554); assay: Binding affinity to wild-type human partial length CAMK2B (M1 to Q380 residues) expressed in bacterial expression system assessed as residual binding level at 1 uM by Kinomescan method relative to control
[14] = molecular target: Serine/threonine-protein kinase Nek9 (Homo sapiens) (UniProt Q8TD19); assay: Binding affinity to wild-type human partial length NEK9 (P32 to R328 residues) expressed in bacterial expression system assessed as residual binding level at 1 uM by Kinomescan method relative to control
[15] = molecular target: Fibroblast growth factor receptor 4 (Homo sapiens) (UniProt P22455); assay: Binding affinity to wild-type human partial length FGFR4 (G402 to E713 residues) expressed in bacterial expression system assessed as residual binding level at 1 uM by Kinomescan method relative to control
Chain of Fibroblast growth factor receptor 4 (Homo sapiens) (P22455 22-802 limits assumed): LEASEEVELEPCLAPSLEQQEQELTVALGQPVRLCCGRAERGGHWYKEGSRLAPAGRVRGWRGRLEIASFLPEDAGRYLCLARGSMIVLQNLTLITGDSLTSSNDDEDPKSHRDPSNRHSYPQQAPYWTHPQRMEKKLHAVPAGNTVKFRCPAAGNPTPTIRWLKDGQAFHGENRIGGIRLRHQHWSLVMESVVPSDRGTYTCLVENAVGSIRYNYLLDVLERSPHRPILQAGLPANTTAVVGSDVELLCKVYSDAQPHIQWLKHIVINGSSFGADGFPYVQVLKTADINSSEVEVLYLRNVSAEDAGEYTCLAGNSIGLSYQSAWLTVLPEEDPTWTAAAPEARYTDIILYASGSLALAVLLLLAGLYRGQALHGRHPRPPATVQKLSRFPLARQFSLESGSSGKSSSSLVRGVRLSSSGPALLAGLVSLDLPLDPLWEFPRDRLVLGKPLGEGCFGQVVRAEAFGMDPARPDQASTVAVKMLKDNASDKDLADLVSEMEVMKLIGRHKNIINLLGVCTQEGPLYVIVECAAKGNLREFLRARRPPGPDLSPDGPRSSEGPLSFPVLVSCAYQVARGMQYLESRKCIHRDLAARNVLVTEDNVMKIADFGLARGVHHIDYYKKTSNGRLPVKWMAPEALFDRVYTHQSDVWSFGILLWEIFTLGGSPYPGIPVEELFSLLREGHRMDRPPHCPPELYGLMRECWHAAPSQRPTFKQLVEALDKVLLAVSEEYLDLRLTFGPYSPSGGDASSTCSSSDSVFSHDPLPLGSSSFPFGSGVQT

[16] = tested on: Mast/stem cell growth factor receptor Kit (Homo sapiens), P10721 [D816H]; assay: Binding affinity to human partial length KIT D816H mutant (I571 to D952 residues) expressed in mammalian expression system assessed as residual binding level at 1 uM by Kinomescan method relative to control
[17] = molecular target: Serine/threonine-protein kinase PLK2 (Homo sapiens) (UniProt Q9NYY3); assay: Binding affinity to wild-type human partial length PLK2 (H58 to F354 residues) expressed in mammalian expression system assessed as residual binding level at 1 uM by Kinomescan method relative to control
[18] = molecular target: Serine/threonine-protein kinase ULK1 (Homo sapiens) (UniProt O75385); assay: Binding affinity to wild-type human partial length ULK1 (M1 to T309 residues) expressed in mammalian expression system assessed as residual binding level at 1 uM by Kinomescan method relative to control
[19] = tested on: Fibroblast growth factor receptor 3 (Homo sapiens), P22607 [G697C]; assay: Binding affinity to human partial length FGFR3 G697C mutant (R442 to S771 residues) expressed in bacterial expression system assessed as residual binding level at 1 uM by Kinomescan method relative to control
[20] = molecular target: Calcium/calmodulin-dependent protein kinase type 1G (Homo sapiens) (UniProt Q96NX5); assay: Binding affinity to wild-type human partial length CAMK1G (M1 to A342 residues) expressed in bacterial expression system assessed as residual binding level at 1 uM by Kinomescan method relative to control
[21] = molecular target: Rho-associated protein kinase 2 (Homo sapiens) (UniProt O75116); assay: Binding affinity to wild-type human partial length ROCK2 (M1 to T431 residues) expressed in mammalian expression system assessed as residual binding level at 1 uM by Kinomescan method relative to control
[22] = molecular target: Homeodomain-interacting protein kinase 3 (Homo sapiens) (UniProt Q9H422); assay: Binding affinity to wild-type human partial length HIPK3 (M153 to N562 residues) expressed in mammalian expression system assessed as residual binding level at 1 uM by Kinomescan method relative to control
Chain of Homeodomain-interacting protein kinase 3 (Homo sapiens) (Q9H422 whole entry, looked up, the tested form may be a part): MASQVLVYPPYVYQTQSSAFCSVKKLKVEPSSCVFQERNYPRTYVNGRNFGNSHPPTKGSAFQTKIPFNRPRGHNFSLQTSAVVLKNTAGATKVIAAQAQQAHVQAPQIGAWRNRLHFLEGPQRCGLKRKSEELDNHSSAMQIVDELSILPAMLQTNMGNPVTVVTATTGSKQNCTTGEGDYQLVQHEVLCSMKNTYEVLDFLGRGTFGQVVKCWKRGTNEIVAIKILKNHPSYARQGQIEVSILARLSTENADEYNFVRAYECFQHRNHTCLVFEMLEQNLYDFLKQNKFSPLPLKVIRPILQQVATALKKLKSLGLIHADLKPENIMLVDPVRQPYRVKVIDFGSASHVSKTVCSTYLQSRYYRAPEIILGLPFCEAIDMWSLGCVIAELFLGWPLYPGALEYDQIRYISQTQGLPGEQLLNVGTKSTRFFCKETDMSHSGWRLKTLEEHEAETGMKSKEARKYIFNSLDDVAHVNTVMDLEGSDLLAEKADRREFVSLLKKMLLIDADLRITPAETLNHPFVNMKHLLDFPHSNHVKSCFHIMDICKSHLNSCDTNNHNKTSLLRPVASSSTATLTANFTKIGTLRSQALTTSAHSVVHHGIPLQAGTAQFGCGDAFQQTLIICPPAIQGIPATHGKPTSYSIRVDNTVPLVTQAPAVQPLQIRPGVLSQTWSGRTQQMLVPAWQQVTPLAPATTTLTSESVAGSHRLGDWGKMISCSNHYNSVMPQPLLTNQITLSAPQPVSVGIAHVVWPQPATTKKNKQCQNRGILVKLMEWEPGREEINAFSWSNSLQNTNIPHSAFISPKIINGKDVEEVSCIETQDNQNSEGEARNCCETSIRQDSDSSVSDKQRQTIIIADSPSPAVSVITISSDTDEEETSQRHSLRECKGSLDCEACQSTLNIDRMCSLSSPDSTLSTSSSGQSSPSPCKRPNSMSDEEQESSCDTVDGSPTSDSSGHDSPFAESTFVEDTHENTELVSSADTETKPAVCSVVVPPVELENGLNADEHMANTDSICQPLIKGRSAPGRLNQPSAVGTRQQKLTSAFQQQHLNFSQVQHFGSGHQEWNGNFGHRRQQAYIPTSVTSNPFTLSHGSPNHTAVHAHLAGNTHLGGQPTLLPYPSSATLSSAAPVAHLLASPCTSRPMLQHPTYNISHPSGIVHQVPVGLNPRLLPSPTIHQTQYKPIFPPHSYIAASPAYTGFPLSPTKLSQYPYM

[23] = molecular target: Phosphatidylinositol 3-kinase C2 domain-containing subunit gamma (Homo sapiens) (UniProt O75747); assay: Binding affinity to wild-type human partial length PIK3C2G (M1 to I1446 residues) expressed in mammalian expression system assessed as residual binding level at 1 uM by Kinomescan method relative to control
[24] = molecular target: SRSF protein kinase 3 (Homo sapiens) (UniProt Q9UPE1); assay: Binding affinity to wild-type human partial length SRPK3 (P41 to P567 residues) expressed in bacterial expression system assessed as residual binding level at 1 uM by Kinomescan method relative to control

CC(C)Nc1sc(C(=O)c2ccc(Cl)s2)c(N)c1C#N
Activity [1]: 74% | Activity [2]: 80% | Activity [3]: 100% | Activity [4]: 76% | Activity [5]: 91% | Activity [6]: 85% | Activity [7]: 82% | Activity [8]: 100% | Activity [9]: 94% | Activity [10]: 100% | Activity [11]: 100% | Activity [12]: 97% | Activity [13]: 60% | Activity [14]: 85% | Activity [15]: 74% | Activity [16]: 77% | Activity [17]: 67% | Activity [18]: 92% | Activity [19]: 96% | Activity [20]: 68% | Activity [21]: 100% | Activity [22]: 89% | Activity [23]: 84% | Activity [24]: 96%
